From article PMC9667253 (eBioMedicine, 2022) come the findings set out here.

For one experiment, the target named is E2F2 (Homo sapiens, UniProt Q14209). Nature of the experiment: competition in biotin-bufalin pull-down from HepG2 lysate. Format: cell-based.
Experiment [1] has as its target ZFP91 (zinc finger protein 91) (Homo sapiens, UniProt Q96JP5). Nature of the experiment: MST. The experiment is classed as binding.

Chain of E2F2 (Q14209 whole entry): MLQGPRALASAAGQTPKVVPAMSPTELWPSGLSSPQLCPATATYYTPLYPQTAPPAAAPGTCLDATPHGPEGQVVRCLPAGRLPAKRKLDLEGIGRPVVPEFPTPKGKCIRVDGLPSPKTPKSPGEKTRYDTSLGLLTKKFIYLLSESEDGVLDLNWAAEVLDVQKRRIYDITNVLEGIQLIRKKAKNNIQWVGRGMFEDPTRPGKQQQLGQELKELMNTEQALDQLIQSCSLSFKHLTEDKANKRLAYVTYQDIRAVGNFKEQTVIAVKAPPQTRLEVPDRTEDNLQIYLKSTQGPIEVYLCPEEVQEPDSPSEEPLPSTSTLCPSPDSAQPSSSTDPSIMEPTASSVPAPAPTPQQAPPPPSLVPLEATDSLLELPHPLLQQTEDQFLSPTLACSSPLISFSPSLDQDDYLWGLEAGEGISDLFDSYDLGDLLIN
Chain of ZFP91 (zinc finger protein 91) (Q96JP5 2-570): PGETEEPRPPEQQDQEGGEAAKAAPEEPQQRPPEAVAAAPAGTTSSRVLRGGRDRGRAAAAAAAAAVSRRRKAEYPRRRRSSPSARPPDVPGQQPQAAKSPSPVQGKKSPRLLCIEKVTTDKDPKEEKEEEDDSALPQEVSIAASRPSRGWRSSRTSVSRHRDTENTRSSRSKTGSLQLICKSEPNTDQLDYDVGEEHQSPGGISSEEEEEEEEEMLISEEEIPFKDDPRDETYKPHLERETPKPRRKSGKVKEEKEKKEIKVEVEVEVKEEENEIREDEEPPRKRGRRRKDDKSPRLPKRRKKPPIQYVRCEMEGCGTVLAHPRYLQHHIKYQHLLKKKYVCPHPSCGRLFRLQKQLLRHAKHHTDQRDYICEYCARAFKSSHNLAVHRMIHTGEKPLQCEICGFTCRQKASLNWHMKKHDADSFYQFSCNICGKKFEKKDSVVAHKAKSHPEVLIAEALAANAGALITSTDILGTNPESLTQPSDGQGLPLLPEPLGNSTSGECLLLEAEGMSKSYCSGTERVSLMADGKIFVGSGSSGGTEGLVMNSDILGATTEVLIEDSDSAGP

In the case of `C[C@]12CC[C@@H](O)C[C@@H]1CC[C@@H]1[C@@H]2CC[C@]2(C)C(=O)CC[C@@H]12` [DHA, androsterone], the “competition in biotin-bufalin pull-down from HepG2 lysate” value on E2F2 is “DHA significantly limited the binding of biotin-bufalin to E2F2”. In turn, `O=c1cccco1` [α-Pyr, α-Pyrone] registered a Kd in experiment [1] of 900 ± 322 nM.

The Kd is the free concentration of one partner at which half of the binding sites on the other are occupied at equilibrium, for simple one-to-one binding. A higher Kd goes with weaker binding.
